From the supplement of paper PMC10307832

Assays:
Test in all cases: relative viability (nuclei count vs DMSO), 5 days (fraction); higher = more cells survive
[1] = compound: C[C@@]1(C(=O)Nc2ccc(F)nc2)CCCN1c1nc(Nc2cc(C3CC3)n[nH]2)c2cccn2n1 + N=C(N)NC(=N)NCCc1ccccc1 [Phenformin] (partner 250 µM)
Summary of the method: (§1)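 The day after seeding in 1536-well plates, lung cancer cell lines were treated by pin tool with a single drug, or with a fixed anchor-drug dose together with five library-drug doses (not always all listed) in √10 steps. After 5 days, a combined fix-and-stain solution (final 0.05% Triton X-100, 1% formaldehyde, 1 ug/ml Hoechst) was added. Nuclei counted on 4× images gave relative viability as treated counts over vehicle counts, reported as the median of duplicate plates.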

[2] = compound: C[C@@]1(C(=O)Nc2ccc(F)nc2)CCCN1c1nc(Nc2cc(C3CC3)n[nH]2)c2cccn2n1 + CC(=O)c1c(C)c2cnc(Nc3ccc(N4CCNCC4)cn3)nc2n(C2CCCC2)c1=O [Palbociclib] (partner 0.5 µM)
Summary of the method: as §1

Motesanib + Lapatinib = compound: CC1(C)CNc2cc(NC(=O)c3cccnc3NCc3ccncc3)ccc21 [Motesanib] + CS(=O)(=O)CCNCc1ccc(-c2ccc3ncnc(Nc4ccc(OCc5cccc(F)c5)c(Cl)c4)c3c2)o1 [Lapatinib] (partner 2 µM)
Summary of the method: as §1

[3] = compound: C[C@@]1(C(=O)Nc2ccc(F)nc2)CCCN1c1nc(Nc2cc(C3CC3)n[nH]2)c2cccn2n1 + CCNC(=O)c1noc(-c2cc(C(C)C)c(O)cc2O)c1-c1ccc(CN2CCOCC2)cc1 [Luminespib] (partner 0.01 µM)
Summary of the method: as §1

Row | Cell Line | relative viability ([1]; first compound 0.04 µM) | relative viability ([1]; first compound 0.1265 µM) | relative viability ([1]; first compound 0.4 µM) | relative viability ([1]; first compound 1.265 µM) | relative viability ([2]; first compound 0.04 µM) | relative viability ([2]; first compound 0.1265 µM) | relative viability ([2]; first compound 0.4 µM) | relative viability ([2]; first compound 1.265 µM) | relative viability (Motesanib + Lapatinib; first compound 0.01 µM) | relative viability (Motesanib + Lapatinib; first compound 0.03162 µM) | relative viability (Motesanib + Lapatinib; first compound 0.1 µM) | relative viability (Motesanib + Lapatinib; first compound 0.3162 µM) | relative viability (Motesanib + Lapatinib; first compound 1 µM) | relative viability ([3]; first compound 0.04 µM) | relative viability ([3]; first compound 0.1265 µM) | relative viability ([3]; first compound 0.4 µM) | relative viability ([3]; first compound 1.265 µM)
1 | EKVX | 0.204 | 0.215 | 0.218 | 0.221 | 0.387 | 0.277 | 0.279 | 0.286 | 0.201 | 0.21 | 0.225 | 0.204 | 0.246 | 0.804 | 0.67 | 0.683 | 0.935
2 | LXF-289 | 0.528 | 0.472 | 0.484 | 0.48 | 0.644 | 0.541 | 0.62 | 0.661 | 0.893 | 0.867 | 0.909 | 1 | 0.949 | 0.64 | 0.563 | 0.511 | 0.611
3 | ABC-1 | 0.182 | 0.211 | 0.216 | 0.216 | 0.647 | 0.42 | 0.437 | 0.477 | 1.12 | 0.945 | 1.01 | 1.27 | 1.17 | 0.63 | 0.519 | 0.244 | 0.308
4 | NCI-H650 | 0.452 | 0.405 | 0.406 | 0.316 | 0.305 | 0.211 | 0.263 | 0.256 | 0.815 | 0.932 | 0.897 | 1.13 | 0.888 | 0.797 | 0.426 | 0.536 | 0.499
5 | NCI-H1650 | 0.411 | 0.387 | 0.376 | 0.193 | 0.324 | 0.36 | 0.328 | 0.314 | 0.807 |  | 0.667 | 0.723 | 0.735 | 0.215 | 0.194 | 0.199 | 0.181
6 | NCI-H2085 | 0.815 | 0.631 | 0.607 | 0.416 | 0.485 | 0.455 | 0.439 | 0.443 | 0.77 | 0.779 | 0.798 | 0.772 | 0.779 | 0.431 | 0.405 | 0.365 | 0.54
7 | NCI-H1793 | 0.322 | 0.286 |  | 0.306 | 0.367 | 0.294 | 0.225 | 0.289 | 0.858 | 0.636 | 0.64 | 0.701 | 0.773 | 0.581 | 0.18 |  | 0.604
8 | LC-2-ad | 0.484 | 0.388 | 0.369 | 0.257 | 0.421 | 0.396 | 0.384 | 0.347 | 0.947 | 0.921 | 0.999 | 1.1 | 0.843 | 0.97 | 0.859 | 0.719 | 0.599
9 | COR-L 105 | 0.422 | 0.368 | 0.346 | 0.393 | 0.416 | 0.422 | 0.435 | 0.438 | 0.368 | 0.408 | 0.327 | 0.355 | 0.347 | 0.672 | 0.62 | 0.624 | 0.685
10 | NCI-H1355 | 0.418 | 0.415 | 0.347 | 0.39 | 0.312 | 0.269 | 0.242 | 0.321 | 1.07 | 1.01 | 1.04 | 1.09 | 0.962 | 0.669 | 0.517 | 0.577 | 0.696
11 | H3255 | 0.298 | 0.372 | 0.346 | 0.332 | 0.314 | 0.326 | 0.299 | 0.317 | 0.228 | 0.276 | 0.224 | 0.268 | 0.254 | 1.02 | 0.982 | 0.89 | 0.811
12 | NCI-H1993 | 0.495 | 0.657 | 0.541 | 0.55 | 0.461 | 0.465 | 0.27 | 0.49 | 0.884 | 0.893 | 0.801 | 0.867 | 0.638 | 0.535 | 0.476 | 0.275 | 0.555
13 | NCI-H1734 | 0.323 | 0.272 | 0.278 | 0.281 | 0.275 | 0.236 | 0.226 | 0.282 | 0.99 | 1.14 | 1.03 | 1.14 | 0.99 | 0.201 | 0.161 | 0.159 | 0.157
14 | HOP-62 | 0.672 | 0.598 | 0.635 | 0.762 | 0.51 | 0.42 | 0.359 | 0.475 | 0.968 | 0.97 | 0.957 | 1.33 | 1.09 | 0.999 | 0.789 | 0.906 | 1.01
15 | LOU-NH91 | 0.673 | 0.646 | 0.596 | 0.608 | 0.528 | 0.471 | 0.546 | 0.513 | 0.724 | 0.771 | 0.752 | 0.754 | 0.765 | 0.335 | 0.353 | 0.305 | 0.335
16 | NCI-H2228 | 0.223 | 0.196 | 0.171 | 0.232 | 0.694 | 0.425 | 0.463 | 0.498 | 0.902 | 1.13 | 0.848 | 1.24 | 1.08 | 0.121 | 0.121 | 0.15 | 0.116
17 | PC-14 | 0.708 |  | 0.517 | 0.523 | 0.552 | 0.469 | 0.49 | 0.491 | 0.318 | 0.264 | 0.336 | 0.334 | 0.339 | 0.164 |  | 0.12 | 0.175
